Here are results for 9 compounds from ChEMBL document CHEMBL1146256, “ATP-conjugated peptide inhibitors for calmodulin-dependent protein kinase II” (Bioorg Med Chem Lett, 2007).

Starred links: 1 amine or outer side, 2 acyl side, 3 side chain; linkers in the order of their positions; H or OH if unused. Non-standard residues stand in square brackets, D forms with d. Residues, ends and D or L forms follow the SMILES beside them. ξ: configuration not given here. *: point of attachment. X1 = Nc1ncnc2c1ncn2[C@@H]1O[C@H](COP(=O)(O)OP(=O)(O)OP(=O)(O)OC2CC(=O)N(CCOCCOCCOCCN3C(=O)CC(S[C@@H](N[*:1])C(=O)[*:2])C3=O)C2=O)[C@@H](O)[C@H]1O; Biotin = O=C1N[C@H]2[C@H](CS[C@H]2CCCCC(=O)*)N1; ξF = NC(Cc1ccccc1)C(=O)O

A short description of the assay: Inhibition of CaMK2. Also noted: species or system Homo sapiens.
Take `CC(C)C[C@H](NC(=O)[C@H](C)NC(=O)[C@H](CCCCN)NC(=O)[C@H](CCCCN)NC(=O)CCCC[C@@H]1SC[C@@H]2NC(=O)N[C@@H]21)C(=O)N[C@@H](CCCNC(=N)N)C(=O)N[C@@H](CCCNC(=N)N)C(=O)N[C@@H](CCC(N)=O)C(=O)N[C@@H](CCC(=O)O)C(=O)N[C@@H](C)C(=O)N[C@H](C(=O)N[C@@H](CC(=O)O)C(=O)N[C@@H](C)C(=O)N[C@@H](CC(C)C)C(=O)N[C@H](SC1CC(=O)N(CCOCCOCCOCCN2C(=O)CC(OP(=O)(O)OP(=O)(O)OP(=O)(O)OC[C@H]3O[C@@H](n4cnc5c(N)ncnc54)[C@H](O)[C@@H]3O)C2=O)C1=O)C(=O)O)C(C)C` (some centres undefined) (Biotin-KKALRRQEAVDAL[X1]-OH): the IC50 was found to be 305 nM. Regarding `CC(C)C[C@H](NC(=O)[C@H](C)NC(=O)[C@H](CC(=O)O)NC(=O)[C@H](Cc1ccccc1)NCC(=O)[C@H](CNC(=O)CCOP(=O)(O)OP(=O)(O)OP(=O)(O)OC[C@@H]1O[C@H](n2cnc3c(N)ncnc32)[C@@H](O)[C@H]1O)NC(=O)[C@H](CCC(=O)O)NC(=O)[C@H](CCC(N)=O)NC(=O)[C@H](CCCNC(=N)N)NC(=O)[C@H](CCCNC(=N)N)NC(=O)[C@H](CC(C)C)NC(=O)[C@H](CCCCN)NC(=O)[C@H](CCCCN)NC(=O)[C@H](CCCCN)NC(=O)CCCC[C@@H]1SC[C@@H]2NC(=O)N[C@@H]21)C(=O)O`, the IC50 was 22 nM. This IC50 lies about 14-fold lower than the previous one. The same measure for H-KKALRRQEAGDAL-OH: 4000 nM.

As to `CC(C)C[C@H](NC(=O)[C@H](C)NC(=O)[C@H](CC(=O)O)NC(=O)CNCC(=O)[C@H](CNC(=O)CCOP(=O)(O)OP(=O)(O)OP(=O)(O)OC[C@@H]1O[C@H](n2cnc3c(N)ncnc32)[C@@H](O)[C@H]1O)NC(=O)[C@H](CCC(=O)O)NC(=O)[C@H](CCC(N)=O)NC(=O)[C@H](CCCNC(=N)N)NC(=O)[C@H](CCCNC(=N)N)NC(=O)[C@H](CC(C)C)NC(=O)[C@H](C)NC(=O)[C@H](CCCCN)NC(=O)[C@H](CCCCN)NC(=O)CCCC[C@@H]1SC[C@@H]2NC(=O)N[C@@H]21)C(=O)O`, 1320 nM corresponded to half-maximal inhibition (IC50). Then H-KKKLRRQEAFDAL-OH, with 76 nM. Then H-KKALRRQEAVDAL-OH, with 320 nM; and `CC(C)C[C@H](NC(=O)[C@H](C)NC(=O)[C@H](CCCCN)NC(=O)[C@H](CCCCN)NC(=O)CCCC[C@@H]1SC[C@@H]2NC(=O)N[C@@H]21)C(=O)N[C@@H](CCCNC(=N)N)C(=O)N[C@@H](CCCNC(=N)N)C(=O)N[C@@H](CCC(N)=O)C(=O)N[C@@H](CCC(=O)O)C(=O)N[C@@H](C)C(=O)NCC(=O)N[C@@H](CC(=O)O)C(=O)N[C@@H](C)C(=O)N[C@@H](CC(C)C)C(=O)N[C@H](SC1CC(=O)N(CCOCCOCCOCCN2C(=O)CC(OP(=O)(O)OP(=O)(O)OP(=O)(O)OC[C@H]3O[C@@H](n4cnc5c(N)ncnc54)[C@H](O)[C@@H]3O)C2=O)C1=O)C(=O)O` (some centres undefined) (Biotin-KKALRRQEAGDAL[X1]-OH), with 18000 nM; and `CC(C)C[C@H](NC(=O)[C@H](C)NC(=O)[C@H](CC(=O)O)NC(=O)[C@@H](NCC(=O)[C@H](CNC(=O)CCOP(=O)(O)OP(=O)(O)OP(=O)(O)OC[C@@H]1O[C@H](n2cnc3c(N)ncnc32)[C@@H](O)[C@H]1O)NC(=O)[C@H](CCC(=O)O)NC(=O)[C@H](CCC(N)=O)NC(=O)[C@H](CCCNC(=N)N)NC(=O)[C@H](CCCNC(=N)N)NC(=O)[C@H](CC(C)C)NC(=O)[C@H](C)NC(=O)[C@H](CCCCN)NC(=O)[C@H](CCCCN)NC(=O)CCCC[C@@H]1SC[C@@H]2NC(=O)N[C@@H]21)C(C)C)C(=O)O`, with 67 nM. Compound `CC(C)C[C@H](NC(=O)[C@H](C)NC(=O)[C@H](CC(=O)O)NC(=O)C(Cc1ccccc1)NC(=O)[C@H](C)NC(=O)[C@H](CCC(=O)O)NC(=O)[C@H](CCC(N)=O)NC(=O)[C@H](CCCNC(=N)N)NC(=O)[C@H](CCCNC(=N)N)NC(=O)[C@H](CC(C)C)NC(=O)[C@H](CCCCN)NC(=O)[C@H](CCCCN)NC(=O)[C@H](CCCCN)NC(=O)CCCC[C@@H]1SC[C@@H]2NC(=O)N[C@@H]21)C(=O)N[C@H](SC1CC(=O)N(CCOCCOCCOCCN2C(=O)CC(OP(=O)(O)OP(=O)(O)OP(=O)(O)OC[C@H]3O[C@@H](n4cnc5c(N)ncnc54)[C@H](O)[C@@H]3O)C2=O)C1=O)C(=O)O` (some centres undefined) (Biotin-KKKLRRQEA[ξF]DAL[X1]-OH) came in with a half-inhibitory concentration (IC50) of 181 nM.
